Source: US10070645B2, “N-cycloalkyl-N-{[2-(1-substitutedcycloalkyl)phenyl]methylene}-(thio)carboxamide derivatives” (BAYER CROPSCIENCE AKTIENGESELLSCHAFT, priority 2013, dated 2018)

Experiment: log P by HPLC on a reversed-phase column (C 18), EEC Directive 79/831 Annex V.A8
Assay type: physicochemical
Details: HPLC on reversed-phase column (C 18), 40° C., 0.1% aqueous formic acid and acetonitrile, linear gradient 10% to 90% acetonitrile
Procedure: In table 1, the log P values were determined in accordance with EEC Directive 79/831 Annex V.A8 by HPLC (High Performance Liquid Chromatography) on a reversed-phase column (C 18), using the method described below:
Temperature: 40° C.; Mobile phases: 0.1% aqueous formic acid and acetonitrile; linear gradient from 10% acetonitrile to 90% acetonitrile.
Calibration was carried out using unbranched alkan-2-ones (comprising 3 to 16 carbon atoms) with known log P values (determination of the log P values by the retention times using linear interpolation between two successive alkanones). lambda-max-values were determined using UV-spectra from 200 nm to 400 nm and the peak values of the chromatographic signals.
For `Cn1nc(C(F)F)c(C(=O)N(Cc2ccccc2C2(C(F)(F)F)CC2)C2CC2)c1Cl` [I.162], the logP was 3.87.
Compound `Cn1nc(C(F)F)c(C(=O)N(Cc2ccccc2C2(C(F)(F)F)CC2)C2CC2)c1F` [I.161] has a logP of 2.34.
For `Cc1ccc(C2(C)CC2(Cl)Cl)c(CN(C(=O)c2c(C(F)F)nn(C)c2F)C2CC2)c1Cl` (racemic) [I.178], the logP was 4.67.
In the case of `Cn1nc(C(F)F)c(C(=O)N(Cc2cc(F)ccc2C2(C(F)(F)F)CC2)C2CC2)c1Cl` [I.166], the logP is reported as 3.96.
Compound `Cn1nc(C(F)F)c(C(=O)N(Cc2cc(Cl)c(Cl)cc2C2(C)CC2)C2CC2)c1F` [I.180] has a logP of 4.73.

Same assay, conditions: HPLC, reversed-phase column (C 18), 40° C., 0.1% aqueous formic acid and acetonitrile, linear gradient 10% to 90% acetonitrile
With `CC(C)c1ccc(C2(C)CC2)c(CN(C(=O)c2c(C(F)F)nn(C)c2F)C2CC2)c1` [I.070] the logP was 4.61.
In the case of `Cn1nc(C(F)F)c(C(=O)N(Cc2cc(Cl)ccc2C2(C#N)CC2)C2CC2)c1F` [I.094], the logP is reported as 3.13.
`CCC1(c2cc(Cl)ccc2CN(C(=O)c2c(C(F)F)nn(C)c2Cl)C2CC2)CC1` [I.103] gave a logP of 4.82.
For `Cn1nc(C(F)F)c(C(=O)N(Cc2cc(-c3cn(C)c4ccccc34)ccc2C2(C)CC2)C2CC2)c1F` [I.082], the logP was 5.00.
`Cn1nc(C(F)F)c(C(=O)N(Cc2ccc(-c3cccc(F)c3)cc2C2(C)CC2)C2CC2)c1F` [I.038] showed a logP of 4.96.
Work on `Cn1nc(C(F)F)c(C(=O)N(Cc2ccc(-c3ccsc3)cc2C2(C)CC2)C2CC2)c1F` [I.040] yielded a logP of 4.61.
In the case of `CCOC1(c2ccc(C)cc2CN(C(=O)c2c(C(F)F)nn(C)c2Cl)C2CC2)CC1` [I.138], the logP is reported as 4.21.
`Cc1ccc(C2(C(C)C)CC2)c(CN(C(=O)c2c(C(F)F)nn(C)c2F)C2CC2)c1` [I.137] gave a logP of 4.95.
For `Cc1ccc(F)cc1-c1ccc(CN(C(=O)c2c(C(F)F)nn(C)c2F)C2CC2)c(C2(C)CC2)c1` [I.042], the logP was 5.31.
`COC1(c2ccccc2CN(C(=O)c2c(C(F)F)nn(C)c2Cl)C2CC2)CC1` [I.117] gave a logP of 3.42.
`Cn1nc(C(F)F)c(C(=O)N(Cc2ccc(C3CCOCC3)cc2C2(C)CC2)C2CC2)c1F` [I.047] showed a logP of 3.87.
`Cn1nc(C(F)F)c(C(=O)N(Cc2cccc(C3CCCCC3)c2C2(C)CC2)C2CC2)c1F` [I.007] showed a logP of 5.74.
`Cn1nc(C(F)F)c(C(=O)N(Cc2c(C3(C)CC3)ccc(Cl)c2Cl)C2CC2)c1F` [I.085] showed a logP of 4.51.
For `CCC1(c2cc(C)ccc2CN(C(=O)c2c(C(F)F)nn(C)c2F)C2CC2)CC1` [I.104], the logP was 4.59.
Compound `COc1ccc(CN(C(=S)c2c(C(F)F)nn(C)c2F)C2CC2)c(C2(C)CC2)c1` [I.030] has a logP of 4.34.
Compound `Cn1nc(C(F)F)c(C(=O)N(Cc2cc(Br)ccc2C2(C)CC2)C2CC2)c1Cl` [I.057] has a logP of 4.56.
`Cn1nc(C(F)F)c(C(=S)N(Cc2cc(Cl)ccc2C2(C)CC2)C2CC2)c1F` [I.062] showed a logP of 4.82.
Compound `COC1(c2ccccc2CN(C(=O)c2c(C(F)F)nn(C)c2F)C2CC2)CC1` [I.116] has a logP of 3.27.
For `CCC1(c2ccccc2CN(C(=O)c2c(C(F)F)nn(C)c2F)C2CC2)CC1` [I.096], the logP was 4.21.
In the case of `COC1(c2ccc(Cl)cc2CN(C(=O)c2c(C(F)F)nn(C)c2F)C2CC2)CC1` [I.118], the logP is reported as 3.67.
Work on `Cn1nc(C(F)F)c(C(=O)N(Cc2ccc(-c3ccccc3)cc2C2(C)CC2)C2CC2)c1F` [I.033] yielded a logP of 4.93.
Compound `Cn1nc(C(F)F)c(C(=S)N(Cc2cccc(F)c2C2(C)CC2)C2CC2)c1F` [I.010] has a logP of 4.49.
In the case of `CCC1(c2ccc(C)cc2CN(C(=O)c2c(C(F)F)nn(C)c2Cl)C2CC2)CC1` [I.112], the logP is reported as 4.77.
In the case of `Cn1nc(C(F)F)c(C(=O)N(Cc2cccc(F)c2C2(C)CC2)C2CC2)c1Cl` [I.009], the logP is reported as 3.99.
With `COC1(c2ccc(C)cc2CN(C(=O)c2c(C(F)F)nn(C)c2F)C2CC2)CC1` [I.122] the logP was 3.57.
`Cc1ccc(C2(C)CC2Cl)c(CN(C(=O)c2c(C(F)F)nn(C)c2F)C2CC2)c1Cl` (stereo not drawn) [I.140] gave a logP of 4.58.
`Cn1nc(C(F)F)c(C(=O)N(Cc2c(C(F)(F)F)cccc2C2(C)CC2)C2CC2)c1F` [I.088] showed a logP of 4.46.
`CCC1(c2ccc(C(F)(F)F)cc2CN(C(=O)c2c(C(F)F)nn(C)c2Cl)C2CC2)CC1` [I.109] showed a logP of 4.85.
In the case of `C=C(C)c1ccc(CN(C(=O)c2c(C(F)F)nn(C)c2F)C2CC2)c(C2(C)CC2)c1` [I.043], the logP is reported as 4.73.
`Cn1nc(C(F)F)c(C(=O)N(Cc2cc(Br)ccc2C2(C(F)F)CC2)C2CC2)c1F` [I.146] gave a logP of 3.76.
`Cn1nc(C(F)F)c(C(=O)N(Cc2c(F)cccc2C2(C)CC2)C2CC2)c1F` [I.089] showed a logP of 3.79.
Work on `COc1ccc(CN(C(=O)c2c(C(F)F)nn(C)c2F)C2CC2)c(C2(C)CC2)c1` [I.028] yielded a logP of 3.69.
`Cn1nc(C(F)F)c(C(=O)N(Cc2cccc(F)c2C2(C)CC2)C2CC2)c1F` [I.008] gave a logP of 3.89.
`Cn1nc(C(F)F)c(C(=O)N(Cc2ccc3c(c2C2(C)CC2)OCO3)C2CC2)c1Cl` [I.017] showed a logP of 3.67.
With `Cc1ccc(C2(C3CC3)CC2)c(CN(C(=O)c2c(C(F)F)nn(C)c2Cl)C2CC2)c1` [I.135] the logP was 4.72.
`Cn1nc(C(F)F)c(C(=O)N(Cc2ccc(Oc3ccccc3)cc2C2(C)CC2)C2CC2)c1F` [I.032] showed a logP of 4.91.
`Cn1nc(C(F)F)c(C(=O)N(Cc2ccccc2C2(C(F)F)CC2)C2CC2)c1F` [I.142] gave a logP of 3.33.
Compound `Cc1ccc(C2(C3CC3)CC2)c(CN(C(=O)c2c(C(F)F)nn(C)c2F)C2CC2)c1` [I.134] has a logP of 4.59.
With `Cn1nc(C(F)F)c(C(=O)N(Cc2cccc(C3=CCCCC3)c2C2(C)CC2)C2CC2)c1F` [I.014] the logP was 5.59.
`Cn1nc(C(F)F)c(C(=O)N(Cc2ccc(C3=CCOCC3)cc2C2(C)CC2)C2CC2)c1F` [I.037] gave a logP of 3.94.
`Cc1ccc(CN(C(=O)c2c(C(F)F)nn(C)c2F)C2CC2)c(C2(C)CC2)c1` [I.026] gave a logP of 4.21.
In the case of `Cn1nc(C(F)F)c(C(=O)N(Cc2ccc3c(c2C2(C)CC2)OCO3)C2CC2)c1F` [I.016], the logP is reported as 3.53.

Same assay, conditions: reversed-phase HPLC column (C 18); HPLC, reversed-phase column (C 18), 40° C., 0.1% aqueous formic acid and acetonitrile, linear gradient 10% to 90% acetonitrile
Compound `Cn1nc(C(F)F)c(C(=O)N(Cc2cc(Cl)ccc2C2(C)CC2)C2CC2)c1F` [I.060, N-[5-chloro-2-(1-methylcyclopropyl)benzyl]-N-cyclopropyl-3-(difluoromethyl)-5-fluoro-1-methyl-1H-pyrazole-4-carboxamide] has a chromatographic logP of 4.26.

Same assay, conditions: reversed-phase HPLC column (C 18); Table 3 (amines of formula II); HPLC C 18, 40° C., 0.1% aqueous formic acid and acetonitrile
In the case of `CC1(c2ccc(Cl)cc2CNC2CC2)CC1` [II.10, N-[5-chloro-2-(1-methylcyclopropyl)benzyl]cyclopropanamine], the chromatographic logP is reported as 1.7.
`FC(F)(F)C1(c2ccc(Cl)cc2CNC2CC2)CC1` [II.44, N-{5-chloro-2-[1-(trifluoromethyl)cyclopropyl]benzyl}cyclopropanamine] showed a chromatographic logP of 1.47.
`Cc1ccc(C2(C(F)F)CC2)c(CNC2CC2)c1` [II.40, N-{2-[1-(difluoromethyl)cyclopropyl]-5-methylbenzyl}cyclopropanamine] gave a chromatographic logP of 1.09.
Compound `CC1(c2cc(Cl)ccc2CNC2CC2)CC1` [II.04, N-[4-chloro-2-(1-methylcyclopropyl)benzyl]cyclopropanamine] has a chromatographic logP of 1.54.
In the case of `Cc1ccc(C2(C#N)CC2)c(CNC2CC2)c1` [II.21, 1-{2-[(cyclopropylamino)methyl]-4-methylphenyl}cyclopropanecarbonitrile], the chromatographic logP is reported as 1.19.
Compound `FC(F)C1(c2ccc(Cl)cc2CNC2CC2)CC1` [II.38, N-{5-chloro-2-[1-(difluoromethyl)cyclopropyl]benzyl}cyclopropanamine] has a chromatographic logP of 1.16.
Work on `Cc1cc(CNC2CC2)c(C2(C)CC2)cc1C` [II.06, N-[4,5-dimethyl-2-(1-methylcyclopropyl)benzyl]cyclopropanamine] yielded a chromatographic logP of 1.68.
`C#CC1(c2ccc(C)cc2CNC2CC2)CC1` [II.17, N-[2-(1-ethynylcyclopropyl)-5-methylbenzyl]cyclopropanamine] showed a chromatographic logP of 1.15.
Work on `Fc1ccc(C2(C(F)(F)F)CC2)c(CNC2CC2)c1` [II.46, N-{5-fluoro-2-[1-(trifluoromethyl)cyclopropyl]benzyl}cyclopropanamine] yielded a chromatographic logP of 1.32.
Compound `CCC1(c2ccc(C)cc2CNC2CC2)CC1` [II.30, N-[2-(1-ethylcyclopropyl)-5-methylbenzyl]cyclopropanamine] has a chromatographic logP of 1.63.

Same assay, conditions: reversed-phase HPLC column (C 18); Table 4 (aldehydes of formula IV); HPLC C 18, 40° C., 0.1% aqueous formic acid and acetonitrile
Compound `CC1(c2cc(F)ccc2C=O)CC1` [IV.03, 4-fluoro-2-(1-methylcyclopropyl)benzaldehyde] has a chromatographic logP of 3.15.
For `Cc1cc(C=O)c(C2(C)CC2)cc1C` [IV.07, 4,5-dimethyl-2-(1-methylcyclopropyl)benzaldehyde], the chromatographic logP was 3.85.
`O=Cc1cc(Cl)ccc1C1(C(=O)O)CC1` [IV.24, 1-(4-chloro-2-formylphenyl)cyclopropanecarboxylic acid] showed a chromatographic logP of 1.91.
`COC(=O)C1(c2ccc(Cl)cc2C=O)CC1` [IV.25, methyl 1-(4-chloro-2-formylphenyl)cyclopropanecarboxylate] gave a chromatographic logP of 2.68.
Work on `COc1ccc(C=O)c(C2(C)CC2)c1` [IV.05, 4-methoxy-2-(1-methylcyclopropyl)benzaldehyde] yielded a chromatographic logP of 2.92.
Compound `Cc1ccc(C=O)c(C2(C)CC2)c1` [IV.04, 4-methyl-2-(1-methylcyclopropyl)benzaldehyde] has a chromatographic logP of 3.44.
For `N#CC1(c2ccc(Cl)cc2C=O)CC1` [IV.15, 1-(4-chloro-2-formylphenyl)cyclopropanecarbonitrile], the chromatographic logP was 2.35.

Same assay, conditions: reversed-phase HPLC column (C 18); preparation examples
Work on `CC1(c2ccc(Cl)cc2Br)CC1` [2-bromo-4-chloro-1-(1-methylcyclopropyl)benzene] yielded a chromatographic logP of 4.93.
